Experiments:
EW-3 (Ewing's Sarcoma) [1] = assay: combination Emax (second highest fraction inhibited in the dose matrix, 72 h); higher = more inhibition; extreme values may be limits of the assay
Outline: (§1)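 Bliss excess equals the observed combination effect minus the expected value EA + EB − EA·EB, where EA and EB are the effects of each agent alone. Combination Emax is the second-highest inhibition within the matrix. Inhibition was scaled from CellTiter-Glo 2.0 luminescence, with 0 set by vehicle wells and 1 by blank wells, after 72 hours of two-drug dosing of cells plated in 1536-well plates.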

[2] = system: HSC-2 (Oral Cavity Carcinoma); assay: as above
Outline: as §1

NB7 (Neuroblastoma) [3] = assay: as above
Outline: as §1

[4] = system: SCC-9 (Oral Cavity Carcinoma); assay: as above
Outline: as §1

[5] = system: LC4-1 (B-Lymphoblastic Leukemia); assay: as above
Outline: as §1

[6] = system: TGBC11TKB (Gastric Carcinoma); assay: as above
Outline: as §1

[7] = system: OCUM-1 (Gastric Carcinoma); assay: as above
Outline: as §1

GI-1 (Glioblastoma) [8] = assay: as above
Outline: as §1

[9] = system: NCI-N87 (Gastric Carcinoma); assay: as above
Outline: as §1

[10] = system: OCUB-M (Breast Carcinoma); assay: as above
Outline: as §1

[11] = system: SNU-C1 (Colorectal Carcinoma); assay: as above
Outline: as §1

[12] = system: VMRC-LCD (Lung Adenocarcinoma); assay: as above
Outline: as §1

[13] = system: KINGS-1 (Low Grade Glioma); assay: as above
Outline: as §1

[14] = system: H-EMC-SS (Chondrosarcoma); assay: as above
Outline: as §1

[15] = system: JHH-7 (Hepatocellular Carcinoma); assay: as above
Outline: as §1

EW-3 (Ewing's Sarcoma) [16] = assay: Bliss excess, mean over the matrix (fraction); higher = more synergy
Outline: as §1

[17] = system: HSC-2 (Oral Cavity Carcinoma); assay: as above
Outline: as §1

NB7 (Neuroblastoma) [18] = assay: as above
Outline: as §1

[19] = system: SCC-9 (Oral Cavity Carcinoma); assay: as above
Outline: as §1

[20] = system: LC4-1 (B-Lymphoblastic Leukemia); assay: as above
Outline: as §1

[21] = system: TGBC11TKB (Gastric Carcinoma); assay: as above
Outline: as §1

[22] = system: OCUM-1 (Gastric Carcinoma); assay: as above
Outline: as §1

GI-1 (Glioblastoma) [23] = assay: as above
Outline: as §1

[24] = system: NCI-N87 (Gastric Carcinoma); assay: as above
Outline: as §1

[25] = system: OCUB-M (Breast Carcinoma); assay: as above
Outline: as §1

[26] = system: SNU-C1 (Colorectal Carcinoma); assay: as above
Outline: as §1

[27] = system: VMRC-LCD (Lung Adenocarcinoma); assay: as above
Outline: as §1

[28] = system: KINGS-1 (Low Grade Glioma); assay: as above
Outline: as §1

[29] = system: H-EMC-SS (Chondrosarcoma); assay: as above
Outline: as §1

[30] = system: JHH-7 (Hepatocellular Carcinoma); assay: as above
Outline: as §1

Row | SMILES | combination Emax (EW-3 (Ewing's Sarcoma) [1]) | combination Emax [2] | combination Emax (NB7 (Neuroblastoma) [3]) | combination Emax [4] | combination Emax [5] | combination Emax [6] | combination Emax [7] | combination Emax (GI-1 (Glioblastoma) [8]) | combination Emax [9] | combination Emax [10] | combination Emax [11] | combination Emax [12] | combination Emax [13] | combination Emax [14] | combination Emax [15] | Bliss excess (EW-3 (Ewing's Sarcoma) [16]) | Bliss excess [17] | Bliss excess (NB7 (Neuroblastoma) [18]) | Bliss excess [19] | Bliss excess [20] | Bliss excess [21] | Bliss excess [22] | Bliss excess (GI-1 (Glioblastoma) [23]) | Bliss excess [24] | Bliss excess [25] | Bliss excess [26] | Bliss excess [27] | Bliss excess [28] | Bliss excess [29] | Bliss excess [30]
1 | Cc1cc2ncnn2cc1Nc1ncc2c(n1)n(C1CCOCC1)c(=O)n2C [AZD7648] + COc1cc([C@@H]2c3cc4c(cc3[C@@H](O[C@@H]3O[C@@H]5CO[C@@H](C)O[C@H]5[C@H](O)[C@H]3O)[C@H]3COC(=O)[C@H]23)OCO4)cc(OC)c1O [Etoposide] (first compound max 10 µM, 7x7, partner max 10 µM) | 0.855 | 0.866 | 0.909 | 0.481 | 1 | 0.0573 | 0.557 | 0.907 | 0.697 | 0.885 | 0.275 | 0.555 | 0.516 | 0.524 | 0.642 | 0.0762 | 0.128 | 0.0544 | 0.006 | 0.0856 | -0.0517 | 0.0899 | 0.0946 | -0.0062 | 0.0176 | -0.0254 | 0.171 | 0.061 | 0.0506 | 0.0547
2 | O=C(c1cc(Cc2n[nH]c(=O)c3ccccc23)ccc1F)N1CCN(C(=O)C2CC2)CC1 [Olaparib] + CN(CC[C@H](CSC1=CC=CC=C1)NC2=C(C=C(C=C2)S(=O)(=O)NC(=O)C3=CC=C(C=C3)N4CCC(CC4)[C@H](C5=CC=CC=C5C6=CC=C(C=C6)Cl)O)S(=O)(=O)C(F)(F)F)CCO [AZD4320] (first compound max 10 µM, 7x7, partner max 1 µM) | 0.904 | 0.201 | 0.393 | 0.398 | 1 | 0.42 | 0.834 | 0.302 | 0.503 | 0.454 | 0.613 | 0.114 | 0.646 | 0.422 | 0.203 | 0.0125 | 0.0039 | -0.0251 | -0.0395 | 0.0153 | 0.0082 | 0.0129 | 0.0255 | -0.0729 | -0.0115 | -0.055 | -0.029 | -0.0792 | 0.0051 | -0.0326
3 | Cc1c2c(nn1C)CSCc1cc(n(C)n1)CSc1cc(c3ccccc3c1)OCCCc1c(C(=O)O)n(C)c3c-2c(Cl)ccc13 [AZD5991] + CS(=O)(=O)CCNCc1ccc(-c2ccc3ncnc(Nc4ccc(OCc5cccc(F)c5)c(Cl)c4)c3c2)o1 [Lapatinib] (first compound max 1 µM, 7x7, partner max 10 µM) | 0.597 | 0.998 | 0.593 | 0.984 | 0.97 | 0.839 | 0.239 | 0.577 | 0.967 | 1 | 0.425 | 0.33 | 0.215 | 0.3 | 0.348 | -0.028 | 0.0287 | 0.0109 | 0.0313 | 0.0538 | 0.0676 | -0.0754 | -0.0104 | 0.0077 | 0.0617 | -0.0746 | 0.0626 | -0.0437 | -0.0134 | 0.0061

Source: the supplement of paper PMC11061612
